Experimental data published in patent EP1066315B1 (University of Dundee, priority 1998, dated 2008).
Residues, ends and D or L forms follow the SMILES beside them. *: point of attachment. Fmoc = O=C(OCC1c2ccccc2-c2ccccc21)*

System: peripheral blood mononuclear cells (PBMC) / autologous TTCF specific T cell clones
Assay: TTCF antigen presentation by PBMC, read out as proliferation of autologous T cell clones
Format: cell-based, human
Experimental: The invention will now be described by reference to the following Examples and Figures wherein • Figure 1: Processing of TTCF by a leupeptin-insensitive cysteine endopeptidase activity. (a) TTCF was digested in vitro in the presence of disrupted lysosomes (1-2 µg) in the presence or absence of iodoacetamide (1 mM), leupeptin, E64 or pepstatin (each at 0.1 mg/ml). Digestions were in 0.1 M NH4 acetate at pH 4.5 or Na2HPO4, pH 6.0 or 7.0. After 4 hours at 37°C, the reactions were separated by Tris-tricine SDS-PAGE and stained with Coomassie Blue. (b) Cleavage sites: TTCF digestion products were separated by SDS PAGE and electrophoretically transferred to nitrocellulose membrane. Individual fragments numbered 1-6 were subjected to 5 cycles of Edman degradation. N-terminal sequence obtained is shown in bold following upstream residues from TTCF (tetanus toxin numbering). The N-terminal sequence of His-tagged TTCF was obtained for fragments 1 and 3. (c) Residues Asn 1184 and Glu 1184 in TTCF were mutated to alanine (see Methods) and digestions performed as before. The mutation abolishes cleavage at the mutated site but not at the first site (doublet at 47 kD). In this experiment cleavage of the third site was minimal. • Figure 2: TTCF is processed by an asparaginyl endopeptidase. (a) Chromatography of the TTCF processing activity on Mono-S resin. Fractions eluted by NaCl gradient were incubated with the substrates Z-Ala-Ala-Asn-NHMec or Z-Phe-Arg-NHMec in the presence or absence of E64 (trans-epoxysuccinyl-L-leucylamido-(4-guanidino)butane). […] (b) Fractions as above were incubated with 10 µg TTCF in the presence or absence of E64 for 4 hours at 37°C prior to SDS-PAGE analysis. (c) Each fraction was analysed by SDS-PAGE and Western blotting. Electrophoretically transferred material was probed with an affinity purified antiserum raised against the peptide KGIGSGKVLKSGPQC from human legumain^1. • Figure 3: Peptide inhibitors of AEP block asparaginyl endopeptidase activity and TTCF processing in vitro and in vivo. (a) TTCF was digested with purified AEP (legumain from pig kidney) in the presence or absence of 0.2 mg/ml of the peptides indicated. […] (b) Purified AEP or a crude lysosomal protease mixture were incubated with Z-Ala-Ala-Asn-NHMec, Z-Phe-Arg-NHMec (cathepsins L&B) or Z-Val-Val-Ala NHMec (cathepsin S) in the presence of increasing concentrations of AENK or AEQK. Release of 7-amino-4-methyl coumarin was measured after 10, 20 or 30 minutes. […] At different times the cells were washed, fixed in 0.05 % glutaraldehyde and co-cultured with autologous TTCF specific T cell clones. […] Proteins obtained from commercial sources, as described in the literature or custom peptides were digested with purified pig kidney legumain at pH 5.5 in the presence of 1 mM DTT. […] When present peptide was maintained during antigen pulsing at 1 mg/ml (a) or 2 mg/ml (b). At different times the cells were washed, fixed in 0.05 % glutaraldehyde and antigen presentation measured using proliferation of different autologous TTCF-specific T cell clones. c, AEP pre-processing of TTCF speeds antigen presentation. […] Presentation was measured after 60 minutes of antigen pulsing using EBV B cells.
If AEP plays a role in TTCF processing in antigen presenting cells then sufficiently high levels of the competing AENK peptide might be expected to interfere with normal class II MHC loading of TTCF epitopes. Following a 15 minute preincubation with or without tetrapeptides, freshly isolated peripheral blood mononuclear cells (PBMC) were incubated with TTCF antigen in the continued presence or absence of the peptides. At different times, the cells were washed, fixed and then co-cultured with different autologous T cell clones to assess expression of different peptide/MHC complexes. […] At later times there was some recovery of presentation of these epitopes as expected for a competitive inhibitor. […]

[1] = PBMC, 1 mg/ml peptide, 30 µg/ml TTCF, after 60 minutes of antigen pulsing

C[C@H](NC(=O)OCC1c2ccccc2-c2ccccc21)C(=O)N[C@@H](CCC(=O)O)C(=O)N[C@@H](CC(N)=O)C(=O)N[C@@H](CCCCN)C(N)=O [AENK, Ala-Glu-Asn-Lys-NH] (Fmoc-AENK-NH2)
presentation to T cell clone AK 6 [1]: profoundly inhibited | presentation to T cell clones AK 20 and AK 90 [1]: undetectable | presentation to other clones recognising other regions of TTCF (eg AK 111, 71 and 33) (PBMC, 1 mg/ml peptide, 30 µg/ml TTCF, Fig 3c): not affected | presentation to most clones (eg AK 5, 90 & 6) at early times (PBMC, 1 mg/ml peptide, between 30 and 60 minutes of antigen pulsing, Fig 9a): undetactable | inhibitory effect on presentation when TTCF pre-digested in vitro by AEP is used (TTCF pre-digested in vitro by AEP, data not shown): could be overridden
